Source: patent US11266655B2, “Methods and compositions for treating urea cycle disorders” (Camp4 Therapeutics Corporation, priority 2019, dated 2022)
Like-named read-outs stand apart in the source and are kept apart here.

Experiments:
OTC [1] = assay: RNA-seq of compound-treated primary human hepatocytes, OTC expression; format: cell-based; conditions: for OTC expression, Fold change (Log 2) vs untreated: RNA-seq
CPS1 = assay: RNA-seq of compound-treated primary human hepatocytes, CPS1 expression; format: cell-based; conditions: primary human hepatocytes; for CPS1 expression, Fold change (Log 2) vs untreated: RNA-seq
urea cycle genes = assay: RNA-seq of primary human hepatocytes, compounds that modulate multiple urea cycle-related genes; format: cell-based; conditions: primary human hepatocytes, RNA-seq
OTC [2] = assay: siRNA SMARTpool transfection of primary human hepatocytes, OTC qPCR (Table 3B); format: cell-based; conditions: siRNA 10 nM, 48 hrs, vs non-targeting siRNA
Description: Primary human hepatocytes were reversed transfected with 6 pmol siRNA using RNAiMAX Reagent (ThermoFisher Cat No13778030) in 24 well format, 1 ul per well (for a final cone of 10 nM). The following morning, the medium was removed and replaced with Modified Maintenance Medium (see above) for an additional 24 hrs. The entire treatment lasted 48 hrs, at which point the medium was removed and replaced with RLT Buffer for RNA extraction (Qiagen RNeasy 96 QIAcube HT Kit Cat #74171). siRNAs were obtained from Dharmacon and are a pool of four siRNA duplex all designed to target distinct sites within the specific gene of interest (known as “SMARTpool”). They were tested against the control non-targeting siRNA D-001206-13-05.
Isolated RNA was processed for cDNA synthesis and qPCR as described above. Taqman assay used for OTC measurement: Hs00166892_ml

ARG1 = assay: RNA-seq of compound-treated primary human hepatocytes, ARG1 expression; format: cell-based; conditions: for Fold change (Log 2) vs untreated, ARG1 expression: primary human hepatocytes, RNA-seq (Table 7)
SLC25A15 = assay: RNA-seq of compound-treated primary human hepatocytes, SLC25A15 expression; format: cell-based; conditions: primary human hepatocytes, RNA-seq (Table 8)
PDK1 = PDK1 (Homo sapiens, UniProt O15530); conditions: cited from earlier work
Chain of PDK1 (O15530 whole entry): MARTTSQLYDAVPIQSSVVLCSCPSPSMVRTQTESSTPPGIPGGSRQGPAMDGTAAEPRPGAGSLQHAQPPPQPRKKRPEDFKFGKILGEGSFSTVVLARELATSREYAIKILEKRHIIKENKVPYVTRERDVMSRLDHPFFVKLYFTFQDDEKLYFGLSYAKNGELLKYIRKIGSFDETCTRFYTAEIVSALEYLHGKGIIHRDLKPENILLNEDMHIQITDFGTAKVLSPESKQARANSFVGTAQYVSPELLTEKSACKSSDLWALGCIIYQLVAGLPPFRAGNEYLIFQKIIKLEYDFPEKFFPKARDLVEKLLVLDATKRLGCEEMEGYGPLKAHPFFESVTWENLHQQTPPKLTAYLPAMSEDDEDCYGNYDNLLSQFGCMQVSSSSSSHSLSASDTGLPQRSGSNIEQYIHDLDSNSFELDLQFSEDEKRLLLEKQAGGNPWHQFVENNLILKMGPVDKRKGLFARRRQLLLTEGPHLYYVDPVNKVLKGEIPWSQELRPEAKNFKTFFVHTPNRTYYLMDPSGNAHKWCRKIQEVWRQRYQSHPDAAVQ

NAGS = format: cell-based, human
mTOR = mTOR (Homo sapiens, UniProt P42345); conditions: cited from earlier work
Bcr-Abl (T315I) = conditions: cited from earlier work
Bcr-Abl (wildtype) = conditions: cited from earlier work
PKCα = PKCα (Homo sapiens, UniProt P17252); conditions: cited from earlier work
PKCδ = PKCδ (Homo sapiens, UniProt Q05655); conditions: cited from earlier work
Chain of PKCδ (Q05655 whole entry): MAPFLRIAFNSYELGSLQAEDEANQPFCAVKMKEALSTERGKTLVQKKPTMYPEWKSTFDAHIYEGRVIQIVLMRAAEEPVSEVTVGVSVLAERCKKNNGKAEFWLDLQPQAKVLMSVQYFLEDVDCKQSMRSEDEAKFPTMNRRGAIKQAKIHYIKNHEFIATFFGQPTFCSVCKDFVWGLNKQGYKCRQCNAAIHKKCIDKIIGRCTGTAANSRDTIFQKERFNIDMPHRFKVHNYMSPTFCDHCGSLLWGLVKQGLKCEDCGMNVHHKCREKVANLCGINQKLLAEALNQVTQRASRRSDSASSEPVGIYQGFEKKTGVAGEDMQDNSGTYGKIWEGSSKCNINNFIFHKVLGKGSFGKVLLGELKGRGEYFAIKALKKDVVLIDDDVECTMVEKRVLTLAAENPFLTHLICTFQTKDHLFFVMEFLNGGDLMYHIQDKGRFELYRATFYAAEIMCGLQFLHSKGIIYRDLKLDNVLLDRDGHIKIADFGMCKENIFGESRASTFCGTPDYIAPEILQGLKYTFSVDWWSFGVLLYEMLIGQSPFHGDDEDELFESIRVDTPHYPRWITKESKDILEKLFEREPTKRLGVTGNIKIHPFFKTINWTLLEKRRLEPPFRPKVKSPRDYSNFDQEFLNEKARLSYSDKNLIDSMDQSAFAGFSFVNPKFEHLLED

PKCβ = PKCβ (Homo sapiens, UniProt P05771); conditions: cited from earlier work
PKCγ = PKCγ (Homo sapiens, UniProt P05129); conditions: cited from earlier work
ASS1 = assay: RNA-seq of compound-treated primary human hepatocytes, ASS1 expression; format: cell-based
LXR = conditions: cited from earlier work
RARα = RARα (Homo sapiens, UniProt P10276); conditions: cited from earlier work
Chain of RARα (P10276 whole entry, species assumed): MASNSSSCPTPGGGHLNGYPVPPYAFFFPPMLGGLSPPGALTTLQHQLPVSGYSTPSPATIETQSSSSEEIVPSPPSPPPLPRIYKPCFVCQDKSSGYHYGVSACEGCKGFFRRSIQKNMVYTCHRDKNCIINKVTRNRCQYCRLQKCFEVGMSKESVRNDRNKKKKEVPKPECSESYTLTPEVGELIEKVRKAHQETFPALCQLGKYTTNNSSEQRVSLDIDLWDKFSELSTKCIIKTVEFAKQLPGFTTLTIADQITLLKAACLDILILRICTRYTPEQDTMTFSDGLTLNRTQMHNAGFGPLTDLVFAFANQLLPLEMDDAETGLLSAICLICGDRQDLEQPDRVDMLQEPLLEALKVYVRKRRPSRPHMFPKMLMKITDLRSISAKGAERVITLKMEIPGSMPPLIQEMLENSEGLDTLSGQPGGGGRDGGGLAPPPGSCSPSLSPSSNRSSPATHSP

RARβ = RARβ (Homo sapiens, UniProt P10826); conditions: cited from earlier work
RARγ = RARγ (Homo sapiens, UniProt P13631); conditions: cited from earlier work
PDGFRβ = PDGFRβ (Homo sapiens, UniProt P09619); conditions: cited from earlier work
Chain of PDGFRβ (P09619 33-1106, species assumed): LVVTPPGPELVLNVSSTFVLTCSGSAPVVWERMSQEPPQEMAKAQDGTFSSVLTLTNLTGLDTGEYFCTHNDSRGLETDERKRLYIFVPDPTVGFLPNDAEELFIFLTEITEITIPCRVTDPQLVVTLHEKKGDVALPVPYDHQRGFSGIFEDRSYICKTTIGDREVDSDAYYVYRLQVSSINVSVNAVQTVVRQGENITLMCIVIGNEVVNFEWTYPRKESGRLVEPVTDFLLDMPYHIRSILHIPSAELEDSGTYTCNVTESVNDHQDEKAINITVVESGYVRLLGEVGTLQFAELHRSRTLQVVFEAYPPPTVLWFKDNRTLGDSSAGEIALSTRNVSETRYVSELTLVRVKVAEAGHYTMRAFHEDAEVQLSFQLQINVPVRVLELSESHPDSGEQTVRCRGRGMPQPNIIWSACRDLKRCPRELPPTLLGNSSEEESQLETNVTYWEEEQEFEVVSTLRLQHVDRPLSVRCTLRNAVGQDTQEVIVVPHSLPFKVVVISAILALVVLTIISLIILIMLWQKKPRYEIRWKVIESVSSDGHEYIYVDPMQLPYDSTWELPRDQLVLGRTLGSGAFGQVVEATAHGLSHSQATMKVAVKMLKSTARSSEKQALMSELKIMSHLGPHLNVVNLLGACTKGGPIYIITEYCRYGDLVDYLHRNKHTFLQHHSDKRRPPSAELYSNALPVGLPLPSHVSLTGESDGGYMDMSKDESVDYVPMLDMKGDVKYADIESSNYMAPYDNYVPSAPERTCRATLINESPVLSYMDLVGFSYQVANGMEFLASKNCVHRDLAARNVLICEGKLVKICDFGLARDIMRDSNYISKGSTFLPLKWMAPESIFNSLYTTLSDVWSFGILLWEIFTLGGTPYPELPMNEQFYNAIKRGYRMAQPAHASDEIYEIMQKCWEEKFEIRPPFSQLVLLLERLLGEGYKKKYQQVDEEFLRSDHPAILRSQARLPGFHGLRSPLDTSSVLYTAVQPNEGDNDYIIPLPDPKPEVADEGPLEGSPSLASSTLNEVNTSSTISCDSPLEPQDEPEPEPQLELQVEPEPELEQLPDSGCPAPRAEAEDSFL

ASL = assay: RNA-seq of compound-treated primary human hepatocytes, ASL expression; format: cell-based; conditions: primary human hepatocytes
PDGFRα = PDGFRα (Homo sapiens, UniProt P16234); conditions: cited from earlier work
calcium channel = conditions: cited from earlier work
OTC [3] = assay: siRNA knockdown of JAK/STAT/IRF genes in hepatocytes, OTC mRNA; format: cell-based, human; conditions: 10 nM siRNA plus 0.03 nM JAK1 siRNA, FIG. 27C
Excerpt: To confirm that JAK1 inhibition is necessary for OTC and CPS1 gene expression increase, JAK1, JAK2, and JAK3 expression was knocked down using the siRNA methods previously described in Example 1 (JAK1 siRNA Dharmacon #M-003145-02-0005; JAK2 siRNA Dharmacon #M-003146-02-0005; JAK3 siRNA Dharmacon #M-003147-01-0005). The cells were harvest for mRNA collection and quantification as previously described.
In addition, STAT5B is a JAK1 signal transducer and transcription factor activated by JAK1. STAT5B was knocked down in hepatocytes using siRNA (Dharmacon cat #M-010539-02-0005) as previously described in Example 1. The cells were harvest for mRNA collection and quantification as previously described.
To confirm the role of JAK1 and investigate the role of other signaling proteins and transcription factors in OTC and CPS1 expression, a panel of additional genes were knocked down with siRNA alone or in combination with JAK1. In particular, JAK2 was knockdown alone or in combination with JAK1. The combinations are shown in FIG. 26A and FIG. 26B. siRNA used to knock down JAK1 and JAK2 were: JAK1 siRNA Dharmacon #M-003145-02-0005; JAK2 siRNA Dharmacon #M-003146-02-0005. OTC and CPS1 mRNA expression was normalized to B2M. The assay was performed in triplicate in three donor hepatocyte cell lines: 371, 171, and 511A.
Cells were harvested after siRNA treatment for mRNA quantification. JAK1, OTC, and CPS1 mRNA levels were normalized to GUSB.

c-Met = c-Met (Homo sapiens, UniProt P08581); conditions: cited from earlier work
Chain of c-Met (P08581 25-1390): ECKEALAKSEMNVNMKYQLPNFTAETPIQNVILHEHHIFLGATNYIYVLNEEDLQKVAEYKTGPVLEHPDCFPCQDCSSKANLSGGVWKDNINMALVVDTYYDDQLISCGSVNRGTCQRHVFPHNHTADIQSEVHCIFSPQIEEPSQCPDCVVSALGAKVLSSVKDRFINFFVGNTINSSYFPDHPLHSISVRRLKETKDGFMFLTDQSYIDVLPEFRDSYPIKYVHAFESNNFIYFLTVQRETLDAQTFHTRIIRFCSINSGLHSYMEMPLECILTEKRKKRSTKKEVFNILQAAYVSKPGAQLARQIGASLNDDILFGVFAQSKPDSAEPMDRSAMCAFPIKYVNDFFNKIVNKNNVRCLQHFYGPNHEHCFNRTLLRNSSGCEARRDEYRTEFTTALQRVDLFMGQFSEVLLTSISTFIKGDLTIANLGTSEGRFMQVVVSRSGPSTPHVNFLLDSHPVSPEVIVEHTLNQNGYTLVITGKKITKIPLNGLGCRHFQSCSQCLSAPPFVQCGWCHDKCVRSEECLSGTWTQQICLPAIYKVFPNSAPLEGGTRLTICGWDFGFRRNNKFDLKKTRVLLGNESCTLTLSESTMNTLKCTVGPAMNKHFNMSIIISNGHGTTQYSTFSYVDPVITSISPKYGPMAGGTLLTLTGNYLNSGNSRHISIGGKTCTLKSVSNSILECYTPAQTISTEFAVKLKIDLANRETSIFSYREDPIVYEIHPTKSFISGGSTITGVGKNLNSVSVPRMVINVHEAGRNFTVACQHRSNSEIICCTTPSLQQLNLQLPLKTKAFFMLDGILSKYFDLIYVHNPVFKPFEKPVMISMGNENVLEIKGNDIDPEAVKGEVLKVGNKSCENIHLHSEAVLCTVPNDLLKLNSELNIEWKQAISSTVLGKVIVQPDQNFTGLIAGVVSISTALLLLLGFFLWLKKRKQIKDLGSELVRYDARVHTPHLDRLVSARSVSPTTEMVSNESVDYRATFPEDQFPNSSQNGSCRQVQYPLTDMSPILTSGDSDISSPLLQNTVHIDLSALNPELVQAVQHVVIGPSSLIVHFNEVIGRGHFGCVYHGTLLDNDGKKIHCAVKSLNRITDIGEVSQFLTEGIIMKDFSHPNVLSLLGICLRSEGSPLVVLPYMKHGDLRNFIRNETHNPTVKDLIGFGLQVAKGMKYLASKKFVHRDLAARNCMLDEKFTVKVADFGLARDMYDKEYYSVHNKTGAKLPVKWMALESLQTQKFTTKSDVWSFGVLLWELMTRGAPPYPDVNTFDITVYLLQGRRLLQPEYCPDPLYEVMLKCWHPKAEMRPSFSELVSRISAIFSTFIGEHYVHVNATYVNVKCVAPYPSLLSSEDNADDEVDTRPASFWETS

OTC [4] = assay: Hepatocytes incubated with increasing concentrations of IFN-γ, OTC gene expression; format: cell-based, human
Description: To further assess the link between JAK1 and the urea cycle genes, hepatocytes were incubated with increasing concentrations of interferon (IFN)-γ, a known JAK1 activator. The cells were harvested for mRNA collection and OTC gene expression was determined as previously described.

[5] = primary human hepatocytes, RNA-seq (Table 6)
[6] = Example 11, relative mRNA vs DMSO

Molecule: IGF-1: Insulin-like growth factor I
- OTC expression, Fold change (Log 2) vs untreated (OTC [1]; primary human hepatocytes): 0.76 Log 2
- CPS1 expression, Fold change (Log 2) vs untreated (CPS1): 2.22 Log 2
- number of urea cycle genes whose expression was significantly up-regulated (urea cycle genes): four
- Up-regulated Genes (urea cycle genes; urea cycle-related genes significantly increased (Table 10)): CPS1, OTC, ARG1, SLC25A15
- Max fold change in OTC (OTC [2]): 1.69 fold
- Fold change (Log 2) vs untreated, ARG1 expression (ARG1): 1.89 Log 2
- Fold change (Log 2) vs untreated, SLC25A15 expression (SLC25A15): 0.8 Log 2

Molecule: NCC(=O)Nc1ccc(-n2nc(C(F)(F)F)cc2-c2ccc3c(ccc4ccccc43)c2)cc1 [OSU-03012]
- increase in potency over OSU-02067 (PDK1): 2 fold
- Fold change (Log 2) vs untreated, NAGS expression (NAGS; [5]): 1.03 Log 2

Molecule: CNC(=O)Nc1ccc(-c2nc(N3CC4CCC(C3)O4)c3cnn(C4CCC5(CC4)OCCO5)c3n2)cc1 [WYE-125132 (WYE-132)]
- Fold change (Log 2) vs untreated, NAGS expression (NAGS; [5]): 0.64 Log 2
- IC50 (mTOR): 0.19 nM

Molecule: SMAD3 (DNA YGTCTAGACA; siRNA; chemistry not given here; the letters are possibly those of the target site)
- Max fold change in OTC (OTC [2]): 2.49 fold

Molecule: GZD824 Dimesylate
- IC50 (Bcr-Abl (T315I)): 0.68 nM
- IC50 (Bcr-Abl (wildtype)): 0.34 nM

Molecule: COc1ccc2c(c1)c(C1=C(c3c[nH]c4ccccc34)C(=O)NC1=O)cn2CCCN(C)C [GO6983]
- IC50 (PKCα): 7 nM
- IC50 (PKCδ): 10 nM
- IC50 (PKCβ): 7 nM
- IC50 (PKCγ): 6 nM
- Fold change (Log 2) vs untreated, NAGS expression (NAGS; [5]): 0.7 Log 2

Molecule: COCCOCOc1cc2ccc(-c3ccc(C(=O)O)cc3)cc2cc1C12CC3CC(CC(C3)C1)C2 [CD 2665]
- Kd (RARα): > 1000 nM
- Kd (RARβ): 306 nM
- Fold change (Log 2) vs untreated, NAGS expression (NAGS): 0.62 Log 2
- Kd (RARγ): 110 nM

Molecule: COCCOc1ccc2c(c1)ncn2-c1ccc2cccc(N3CCC(N)CC3)c2n1 [CP-673451]
- Relative ASS1 level vs Untreated (±Standard Deviation) (ASS1; 10 uM, primary human hepatocytes, triplicate (Table 15, FIG. 8)): 2.13 ± 0.68
- Fold change (Log 2) vs untreated, ASS1 expression (ASS1; primary human hepatocytes, RNA-seq (Table 4)): 1.52 Log 2
- selectivity over other angiogenic receptors (PDGFRβ): > 450 fold
- Relative OTC level vs Untreated (±Standard Deviation) (OTC [1]; 10 uM, primary human hepatocytes, triplicate (Table 14)): 3.36 ± 1.73
- increase in OTC gene expression (Table 14, FIG. 6) (OTC [1]; [6]): significant increase
- OTC expression, Fold change (Log 2) vs untreated (OTC [1]; primary human hepatocytes): 2.63 Log 2
- Relative CPS1 level vs Untreated (±Standard Deviation) (CPS1; 10 uM, triplicate (Table 20, FIG. 12)): 3.90 ± 0.97
- CPS1 expression, Fold change (Log 2) vs untreated (CPS1): 1.77 Log 2
- number of urea cycle genes whose expression was significantly up-regulated (urea cycle genes): six
- Relative ASL level vs Untreated (±Standard Deviation) (ASL; 10 uM, triplicate (Table 25, FIG. 17)): 2.94 ± 0.78
- ASL expression, Fold change (Log 2) vs untreated (ASL; RNA-seq): 1.81 Log 2
- increase in ARG1 gene expression (Tables 17, 18, FIG. 9, 10) (ARG1; [6]): greatest increase
- Fold change (Log 2) vs untreated, ARG1 expression (ARG1): 3.21 Log 2
- Fold change (Log 2) vs untreated, SLC25A15 expression (SLC25A15): 0.76 Log 2
- IC50 (PDGFRα): 10 nM

Molecule: CCOC(=O)C1=C(COCCN)NC(C)=C(C(=O)OC)C1c1ccccc1Cl (stereo not shown) [Amlodipine Besylate]
- IC50 (calcium channel): 1.9 nM
- Fold change (Log 2) vs untreated, NAGS expression (NAGS; [5]): 0.73 Log 2

Molecule: STAT5A (DNA ATTTCTNAGAAA; target site or template, no part of the molecule; chemistry not given here)
- OTC expression after knockdown in combination with JAK1 (OTC [3]): increased

Molecule: Cc1ccc(C(=O)Nc2ccc(Oc3cc4cnn(C)c4cc3-c3cn[nH]c3)c(F)c2)c(=O)n1-c1ccc(F)cc1 [Merestinib]
- half life (t1/2) (c-Met): 525 min

Molecule: IRF1 (DNA GAAAGTGAAAGT; siRNA; chemistry not given here; the letters are possibly those of the target site)
- Max fold change in OTC (OTC [2]): 1.70 fold

Molecule: STAT1 (DNA NATTTCCNGGAAAT; target site or template, no part of the molecule; chemistry not given here)
- OTC expression after knockdown in combination with JAK1 (OTC [3]): increased

B1: IFN-γ: interferon (IFN)-γ, a known JAK1 activator (protein, UniProt P01579 24-161, looked up)
Interferon gamma: QDPYVKEAENLKKYFNAGHSDVADNGTLFLGILKNWKEESDRKIMQSQIVSFYFKLFKNFKDDQSIQKSVETIKEDMNVKFFNSNKKKRDDFEKLTNYSVTDLNVQRKAIHELIQVMAELSPAAKTGKRKRSQMLFRG
- OTC gene expression after IFN-γ (OTC [4]): dose-dependent decrease
- OTC gene expression after IFN-γ (OTC [4]; listed as IFNγ): decreases
